Source: patent US11958861B2, “Spirocyclic lactams as JAK2 V617F inhibitors” (Incyte Corporation, priority 2021, dated 2024)
pIC50: −log10 of the molar value. Structures can show the parent of a compound that is named as a salt.

How the values were obtained:
[1] = target: T1, catalytic domain (JH1, amino acids 808-1132) of human JAK2 (Homo sapiens, UniProt O60674); assay: JAK2 HTRF Enzyme Activity Assay; type: biochemical; conditions: ATP 30 μM, read-out: ENZ 30UMATP
T1 construct: catalytic domain (JH1, amino acids 808-1132) of human JAK2; His (N); purchased BPS Bioscience 40450; host or cells: baculovirus expression system
How it was run: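 IC50 values come from a four-parameter fit of HTRF signal (Eu-PY20 antibody/streptavidin-APC, EDTA-quenched). Reaction: 0.015 nM N-His JAK2 catalytic domain (baculovirus), 500 nM biotin-peptide, 30 μM or 1 mM ATP, Tris pH 7.5 buffer, 60 min, 25° C.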

[2] = target: T2, pseudo-kinase domain (JH2, amino-acids 536-812) of human Wild Type JAK2 (Homo sapiens, UniProt O60674, F794H/W659A/W777A); assay: JAK2 LanthaScreen JH2-WT Binding Assay; conditions: 1 hour at 25° C.
T2 construct: pseudo-kinase domain (JH2, amino-acids 536-812 with 3 surface mutations W659A, W777A, F794H); purchased BPS Bioscience 79463; host or cells: baculovirus expression system
How it was run: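 Compounds, serially diluted, were mixed with 0.145 nM JH2 domain, 50 nM tracer and 0.25 nM streptavidin-Tb cryptate, then incubated 1 hour at 25° C before LanthaScreen reading. Wells containing 2 mM ATP defined non-specific binding. Four-parameter dose-response curves gave IC50.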

[3] = target: T3, pseudo-kinase domain (JH2, amino-acids 536-812) of human V617F mutant JAK2 (Homo sapiens, UniProt O60674, F794H/V617F/W659A/W777A); assay: JAK2 LanthaScreen JH2-V617F Binding Assay; conditions: 1 hour at 25° C.
T3 construct: pseudo-kinase domain (JH2, amino-acids 536-812 with 3 surface mutations W659A, W777A, F794H); purchased BPS Bioscience 79498; host or cells: baculovirus expression system
How it was run: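 Serially diluted compounds are mixed with 0.26 nM protein, 50 nM fluorescent JAK2-JH2 tracer and 0.25 nM terbium-labelled streptavidin, then incubated 1 h at 25° C. LanthaScreen signal is read, and IC50 is fitted.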

[4] = target: T4, catalytic domain (JH1, amino acids 826-1132) of human JAK2 (Homo sapiens, UniProt O60674); assay: JAK2 LanthaScreen JH1 Binding Assay; conditions: 2 hours at 25° C.
T4 construct: catalytic domain (JH1, amino acids 826-1132) of human JAK2; purchased Carna Biosciences 08-445-20N; host or cells: baculovirus expression system
How it was run: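 Reaction held 1.5 nM biotinylated FLAG-JAK2 JH1, 50 nM tracer and 0.5 nM streptavidin-Tb in pH 7.5 Tris buffer; 2 mM ATP defined nonspecific binding.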

T3 sequence (O60674 536-812 V617F/W659A/W777A/F794H): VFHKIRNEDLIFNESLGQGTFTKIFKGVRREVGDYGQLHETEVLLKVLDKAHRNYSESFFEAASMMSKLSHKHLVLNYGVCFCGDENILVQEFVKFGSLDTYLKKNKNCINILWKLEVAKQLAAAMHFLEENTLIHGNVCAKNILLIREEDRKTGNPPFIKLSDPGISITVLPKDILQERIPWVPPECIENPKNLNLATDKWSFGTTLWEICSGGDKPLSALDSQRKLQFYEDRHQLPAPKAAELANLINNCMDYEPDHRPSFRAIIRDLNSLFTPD
T2 sequence (O60674 536-812 W659A/W777A/F794H): as the sequence (O60674 536-812 V617F/W659A/W777A/F794H) above, with F82V counted along it
T4 sequence (O60674 826-1132): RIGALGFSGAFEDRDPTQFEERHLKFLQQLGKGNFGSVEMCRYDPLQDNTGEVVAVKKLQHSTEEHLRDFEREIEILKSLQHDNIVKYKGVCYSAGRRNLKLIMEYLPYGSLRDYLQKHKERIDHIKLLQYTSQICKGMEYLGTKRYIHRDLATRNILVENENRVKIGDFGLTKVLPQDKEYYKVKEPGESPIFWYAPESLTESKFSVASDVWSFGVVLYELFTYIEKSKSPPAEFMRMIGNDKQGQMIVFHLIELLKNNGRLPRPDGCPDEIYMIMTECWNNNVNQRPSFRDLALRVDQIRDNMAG
T1 sequence (O60674 808-1132): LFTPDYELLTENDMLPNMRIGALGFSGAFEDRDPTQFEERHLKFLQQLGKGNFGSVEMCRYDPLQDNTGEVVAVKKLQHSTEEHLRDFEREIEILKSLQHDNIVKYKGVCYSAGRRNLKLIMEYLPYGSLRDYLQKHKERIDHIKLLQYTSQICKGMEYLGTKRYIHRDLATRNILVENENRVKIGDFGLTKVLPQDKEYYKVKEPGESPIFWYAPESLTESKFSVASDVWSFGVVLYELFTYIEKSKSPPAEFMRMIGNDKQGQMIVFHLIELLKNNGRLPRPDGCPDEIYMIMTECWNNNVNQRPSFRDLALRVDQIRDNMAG

SMILES | pIC50 [1] | pIC50 [2] | pIC50 [3] | pIC50 [4]
CN1C(=O)C2(CCN(C3(CC#N)CCC3)CC2)c2c1cnc1[nH]c(-c3cnn(CCN4CCOCC4)c3)c(-c3ccc4c(cnn4C)c3)c21 [Example 38, 2-(1-(6-Methyl-1-(1-methyl-1H-indazol-5-yl)-2-(1-(2-morpholinoethyl)-1H-pyrazol-4-yl)-7-oxo-6,7-dihydro-3H-spiro[dipyrrolo[2,3-b:3′,2′-d]pyridine-8,4′-piperidin]-1′-yl)cyclobutyl)acetonitrile, trifluoroacetate salt] | ≥ 7.00 | ≥ 7.00 | ≥ 7.00 | 6.30 to 7.00
CN1C(=O)C2(CCN(C3(CC#N)CCC3)CC2)c2c1cnc1[nH]c(-c3cnn(CC4CC4)c3)c(-c3ccc4c(cnn4C)c3)c21 [Example 39, 2-(1-(2-(1-(Cyclopropylmethyl)-1H-pyrazol-4-yl)-6-methyl-1-(1-methyl-1H-indazol-5-yl)-7-oxo-6,7-dihydro-3H-spiro[dipyrrolo[2,3-b:3′,2′-d]pyridine-8,4′-piperidin]-1′-yl)cyclobutyl)acetonitrile, trifluoroacetate salt] | 6.30 to 7.00 | ≥ 7.00 | ≥ 7.00 | 6.30 to 7.00
CN1C(=O)C2(CCN(C3(CC#N)CCC3)CC2)c2c1cnc1[nH]c(-c3cn(C)nc3C3CC3)c(-c3ccc4c(cnn4C)c3)c21 [Example 40, 2-(1-(2-(3-Cyclopropyl-1-methyl-1H-pyrazol-4-yl)-6-methyl-1-(1-methyl-1H-indazol-5-yl)-7-oxo-6,7-dihydro-3H-spiro[dipyrrolo[2,3-b:3′,2′-d]pyridine-8,4′-piperidin]-1′-yl)cyclobutyl)acetonitrile, trifluoroacetate salt] | < 5.60 | ≥ 7.00 | ≥ 7.00 | < 5.60
CC(=O)N1CCC(n2cc(-c3[nH]c4ncc5c(c4c3-c3ccc4c(cnn4C)c3)C3(CCN(C4(CC#N)CCC4)CC3)C(=O)N5C)cn2)CC1 [Example 41, 2-(1-(2-(1-(1-Acetylpiperidin-4-yl)-1H-pyrazol-4-yl)-6-methyl-1-(1-methyl-1H-indazol-5-yl)-7-oxo-6,7-dihydro-3H-spiro[dipyrrolo[2,3-b:3′,2′-d]pyridine-8-4′-piperidin]-1′-yl)cyclobutyl)acetonitrile, trifluoroacetate salt] | ≥ 7.00 | ≥ 7.00 | ≥ 7.00 | 6.30 to 7.00
CN1C(=O)C2(CCN(C3(CC#N)CCC3)CC2)c2c1cnc1[nH]c(-c3ccn(C)c3)c(-c3ccc4c(cnn4C)c3)c21 [Example 42, 2-(1-(6-Methyl-1-(1-methyl-1H-indazol-5-yl)-2-(1-methyl-IH-pyrrol-3-yl)-7-oxo-6,7-dihydro-3H-spiro[dipyrrolo[2,3b:3′,2′-d]pyridine-8,4′-piperidin]-1′-yl)cyclobutyl)acetonitrile, trifluoroacetate salt] | 6.30 to 7.00 | ≥ 7.00 | ≥ 7.00 | 5.90 to 6.30
CN1C(=O)C2(CCN(C3(CC#N)CCC3)CC2)c2c1cnc1[nH]c(-c3cnn4c3CCCC4)c(-c3ccc4c(cnn4C)c3)c21 [Example 43, 2-(1-(6-Methyl-1-(1-methyl-1H-indazol-5-yl)-7-oxo-2-(4,5,6,7-tetrahydropyrazolo[1,5-a]pyridin-3-yl)-6,7-dihydro-3H-spiro[dipyrrolo[2,3-b:3′,2′-d]pyridine-8,4′-piperidin]-1′-yl)cyclobutyl)acetonitrile] | < 5.60 | ≥ 7.00 | ≥ 7.00 | < 5.60
COC(C)(C)Cn1cc(-c2[nH]c3ncc4c(c3c2-c2ccc3c(cnn3C)c2)C2(CCN(C3(CC#N)CCC3)CC2)C(=O)N4C)cn1 [Example 44, 2-(1-(2-(1-(2-Methoxy-2-methylpropyl)-1H-pyrazol-4-yl)-6-methyl-1-(1-methyl-1H-indazol-5-yl)-7-oxo-6,7-dihydro-3H-spiro[dipyrrolo[2,3-b:3′,2′-d]pyridine-8,4′-piperidin]-1′-yl)cyclobutyl)acetonitrile, trifluoroacetate salt] | 6.30 to 7.00 | ≥ 7.00 | ≥ 7.00 | 6.30 to 7.00
O=C(O)C(F)(F)F.[2H]C([2H])([2H])n1ccc2cc(-c3c(-c4cnn(CCOC)c4)[nH]c4ncc5c(c34)C3(CCN(C4(CC#N)CCC4)CC3)C(=O)N5C)ccc21 [Example 46, 2-(1-(2-(1-(2-Methoxyethyl)-1H-pyrazol-4-yl)-6-methyl-1-(1-(methyl-d3)-1H-indol-5-yl)-7-oxo-6,7-dihydro-3H-spiro[dipyrrolo[2,3-b:3′,2′-d]pyridine-8,4′-piperidin]-1′-yl)cyclobutyl)acetonitrile, trifluoroacetate salt] | 5.90 to 6.30 | ≥ 7.00 | ≥ 7.00 | 5.90 to 6.30
COc1c(F)cc(-c2c(-c3cnn(CC(C)(C)O)c3)[nH]c3ncc4c(c23)C2(CCN(C3(CC#N)CCC3)CC2)C(=O)N4C)cc1F [Example 47, 2-(1-(1-(3,5-Difluoro-4-methoxyphenyl)-2-(1-(2-hydroxy-2-methylpropyl)-1H-pyrazol-4-yl)-6-methyl-7-oxo-6,7-dihydro-3H-spiro[dipyrrolo[2,3-b:3′,2′-d]pyridine-8,4′-piperidin]-1′-yl)cyclobutyl)acetonitrile, trifluoroacetate salt] | < 5.60 | ≥ 7.00 | ≥ 7.00 | < 5.60
CN1C(=O)C2(CCN(C3(CC#N)CCC3)CC2)c2c1cnc1[nH]c(-c3cnn(CC(C)(C)O)c3)c(-c3cc4cnccc4s3)c21 [Example 48, 2-(1-(2-(1-(2-Hydroxy-2-methylpropyl)-1H-pyrazol-4-yl)-6-methyl-7-oxo-1-(thieno[3,2-c]pyridin-2-yl)-6,7-dihydro-3H-spiro[dipyrrolo[2,3-b:3′,2′-d]pyridine-8,4′-piperidin]-1′-yl)cyclobutyl)acetonitrile, trifluoroacetate salt] | 6.30 to 7.00 | ≥ 7.00 | ≥ 7.00 | 6.30 to 7.00
CN1C(=O)C2(CCN(C3(CC#N)CCC3)CC2)c2c1cnc1[nH]c(-c3cnn(CC(C)(C)O)c3)c(-c3ccc(C4CC4)cc3)c21 [Example 49, 2-(1-(1-(4-Cyclopropylphenyl)-2-(1-(2-hydroxy-2-methylpropyl)-1H-pyrazol-4-yl)-6-methyl-7-oxo-6,7-dihydro-3H-spiro[dipyrrolo[2,3-b:3′,2′-d]pyridine-8,4′-piperidin]-1′-yl)cyclobutyl)acetonitrile, trifluoroacetate salt] | < 5.60 | ≥ 7.00 | ≥ 7.00 | < 5.60
CN1C(=O)C2(CCN(C3(CC#N)CCC3)CC2)c2c1cnc1[nH]c(-c3cnn(CC(C)(C)O)c3)c(-c3ccc(OC(F)(F)F)cc3)c21 [Example 50, 2-(1-(2-(1-(2-Hydroxy-2-methylpropyl)-1H-pyrazol-4-yl)-6-methyl-7-oxo-1-(4-(trifluoromethoxy)phenyl)-6,7-dihydro-3H-spiro[dipyrrolo[2,3-b:3′,2′-d]pyridine-8,4′-piperidin]-1′-yl)cyclobutyl)acetonitrile, trifluoroacetate salt] | < 5.60 | ≥ 7.00 | ≥ 7.00 | < 5.60
CN1C(=O)C2(CCN(C3(CC#N)CCC3)CC2)c2c1cnc1[nH]c(-c3cnn(CC(C)(C)O)c3)c(-c3ccc(C(F)(F)F)cc3)c21 [Example 52, 2-(1-(2-(1-(2-Hydroxy-2-methylpropyl)-1H-pyrazol-4-yl)-6-methyl-7-oxo-1-(4-(trifluoromethyl)phenyl)-6,7-dihydro-3H-spiro[dipyrrolo[2,3-b:3′,2′-d]pyridine-8,4′-piperidin]-1′-yl)cyclobutyl)acetonitrile, trifluoroacetate salt] | < 5.60 | ≥ 7.00 | ≥ 7.00 | < 5.60
CCS(=O)(=O)N1CC2(C1)CC1(C2)C(=O)N(C)c2cnc3[nH]c(-c4cnn(C(C)C)c4)c(-c4ccc5c(cnn5C)c4)c3c21 [Example 54, 1-(Ethylsulfonyl)-2″-(1-isopropyl-1H-pyrazol-4-yl)-6″-methyl-1″-(1-methyl-1H-indazol-5-yl)-3″,6″-dihydro-7″H-dispiro[azetidine-3,1′-cyclobutane-3′,8″-dipyrrolo[2,3-b:3′,2′-d]pyridin]-7″-one, trifluoroacetate salt] | 5.90 to 6.30 | ≥ 7.00 | ≥ 7.00 | 5.90 to 6.30
